From the NIST ThermoML archive (doi:10.1021/je034102r)
Numbers after ± are expanded uncertainties.

Experiment: molar heat capacity at saturation pressure
Conditions: Small (less than 1 g) adiabatic calorimetry

CCCCn1cc[n+](C)c1.F[P-](F)(F)(F)(F)F [1-butyl-3-methylimidazolium hexafluorophosphate]
molar heat capacity (110.13 K, Crystal): 163.1 ± 0.92 J/K/mol
molar heat capacity (112.28 K, Glass): 180.3 ± 1 J/K/mol
molar heat capacity (112.77 K, Crystal): 165.8 ± 0.92 J/K/mol
molar heat capacity (114.54 K, Glass): 183.2 ± 1 J/K/mol
molar heat capacity (115.37 K, Crystal): 168.1 ± 0.92 J/K/mol
molar heat capacity (116.84 K, Glass): 185.7 ± 1 J/K/mol
molar heat capacity (117.92 K, Crystal): 170.7 ± 0.92 J/K/mol
molar heat capacity (119.11 K, Glass): 188.2 ± 1 J/K/mol
molar heat capacity (120 K, Crystal): 172.9 ± 0.92 J/K/mol
molar heat capacity (120 K, Glass): 189.1 ± 1 J/K/mol
molar heat capacity (120.6 K, Crystal): 173.4 ± 0.92 J/K/mol
molar heat capacity (121.35 K, Glass): 190.5 ± 1 J/K/mol
molar heat capacity (123.41 K, Crystal): 176.3 ± 0.92 J/K/mol
molar heat capacity (123.71 K, Glass): 193.2 ± 1 J/K/mol
molar heat capacity (126.17 K, Crystal): 178.9 ± 1 J/K/mol
molar heat capacity (126.2 K, Glass): 195.8 ± 1.1 J/K/mol
molar heat capacity (128.66 K, Glass): 198.4 ± 1.1 J/K/mol
molar heat capacity (128.89 K, Crystal): 181.8 ± 1 J/K/mol
molar heat capacity (130 K, Crystal): 182.8 ± 0.92 J/K/mol
molar heat capacity (130 K, Glass): 200 ± 1 J/K/mol
molar heat capacity (131.16 K, Glass): 201.3 ± 1.1 J/K/mol
molar heat capacity (131.56 K, Crystal): 184.6 ± 1 J/K/mol
molar heat capacity (133.7 K, Glass): 204.1 ± 1.1 J/K/mol
molar heat capacity (134.28 K, Crystal): 187.2 ± 1 J/K/mol
molar heat capacity (136.2 K, Glass): 207.1 ± 1.1 J/K/mol
molar heat capacity (137.03 K, Crystal): 190.2 ± 1 J/K/mol
molar heat capacity (138.67 K, Glass): 209.8 ± 1.1 J/K/mol
molar heat capacity (139.75 K, Crystal): 193 ± 1 J/K/mol
molar heat capacity (140 K, Crystal): 193.1 ± 1 J/K/mol
molar heat capacity (140 K, Glass): 211 ± 1.1 J/K/mol
molar heat capacity (141.19 K, Glass): 212.4 ± 1.2 J/K/mol
molar heat capacity (142.43 K, Crystal): 195.6 ± 1.1 J/K/mol
molar heat capacity (143.75 K, Glass): 215.3 ± 1.2 J/K/mol
molar heat capacity (145.07 K, Crystal): 198.5 ± 1.1 J/K/mol
molar heat capacity (146.28 K, Glass): 217.9 ± 1.2 J/K/mol
molar heat capacity (147.68 K, Crystal): 201.1 ± 1.1 J/K/mol
molar heat capacity (148.93 K, Glass): 220.9 ± 1.2 J/K/mol
molar heat capacity (150 K, Crystal): 203.7 ± 1 J/K/mol
molar heat capacity (150 K, Glass): 222.2 ± 1.1 J/K/mol
molar heat capacity (150.26 K, Crystal): 204.1 ± 1.1 J/K/mol
molar heat capacity (151.7 K, Glass): 224.2 ± 1.2 J/K/mol
molar heat capacity (152.8 K, Crystal): 206.7 ± 1.1 J/K/mol
molar heat capacity (154.44 K, Glass): 226.9 ± 1.2 J/K/mol
molar heat capacity (155.32 K, Crystal): 209.6 ± 1.1 J/K/mol
molar heat capacity (157.14 K, Glass): 230.1 ± 1.2 J/K/mol
molar heat capacity (157.81 K, Crystal): 212.4 ± 1.2 J/K/mol
molar heat capacity (159.81 K, Glass): 233.2 ± 1.2 J/K/mol
molar heat capacity (160 K, Crystal): 214.6 ± 1.1 J/K/mol
molar heat capacity (160 K, Glass): 233.6 ± 1.2 J/K/mol
molar heat capacity (160.34 K, Crystal): 214.8 ± 1.2 J/K/mol
molar heat capacity (162.53 K, Glass): 236.6 ± 1.2 J/K/mol
molar heat capacity (162.92 K, Crystal): 217.8 ± 1.2 J/K/mol
molar heat capacity (165.29 K, Glass): 239.8 ± 1.2 J/K/mol
molar heat capacity (165.46 K, Crystal): 220.6 ± 1.2 J/K/mol
molar heat capacity (168.02 K, Glass): 243.1 ± 1.2 J/K/mol
molar heat capacity (168.07 K, Crystal): 223.6 ± 1.2 J/K/mol
molar heat capacity (170 K, Crystal): 225.7 ± 1.1 J/K/mol
molar heat capacity (170 K, Glass): 245.7 ± 1.2 J/K/mol
molar heat capacity (170.71 K, Crystal): 226.4 ± 1.2 J/K/mol
molar heat capacity (170.72 K, Glass): 246.4 ± 1.3 J/K/mol
molar heat capacity (173.34 K, Crystal): 229.6 ± 1.2 J/K/mol
molar heat capacity (173.39 K, Glass): 249.7 ± 1.3 J/K/mol
molar heat capacity (175.93 K, Crystal): 232.7 ± 1.2 J/K/mol
molar heat capacity (176.04 K, Glass): 253 ± 1.3 J/K/mol
molar heat capacity (177.26 K, Glass): 254.8 ± 1.3 J/K/mol
molar heat capacity (178.5 K, Crystal): 235.4 ± 1.2 J/K/mol
molar heat capacity (180 K, Crystal): 237.2 ± 1.2 J/K/mol
molar heat capacity (180 K, Glass): 258.1 ± 1.2 J/K/mol
molar heat capacity (180.15 K, Glass): 258.7 ± 1.3 J/K/mol
molar heat capacity (181.04 K, Crystal): 238.3 ± 1.2 J/K/mol
molar heat capacity (183.09 K, Glass): 263.9 ± 1.4 J/K/mol
molar heat capacity (183.56 K, Crystal): 241.2 ± 1.2 J/K/mol
molar heat capacity (186.06 K, Crystal): 244.3 ± 1.2 J/K/mol
molar heat capacity (186.06 K, Glass): 273 ± 1.4 J/K/mol
molar heat capacity (188.53 K, Crystal): 247.2 ± 1.3 J/K/mol
molar heat capacity (188.97 K, Glass): 285 ± 1.5 J/K/mol
molar heat capacity (190 K, Crystal): 248.8 ± 1.2 J/K/mol
molar heat capacity (190 K, Glass): 270.5 ± 1.2 J/K/mol
molar heat capacity (190.6 K, Glass): 271.2 ± 1.2 J/K/mol
molar heat capacity (190.6 K, Liquid): 352.9 ± 1.6 J/K/mol
molar heat capacity (190.98 K, Crystal): 249.9 ± 1.3 J/K/mol
molar heat capacity (191.7 K, Glass): 322.8 ± 1.7 J/K/mol
molar heat capacity (193.42 K, Crystal): 252.8 ± 1.3 J/K/mol
molar heat capacity (194.24 K, Glass): 351 ± 1.8 J/K/mol
molar heat capacity (194.81 K, Crystal): 254.5 ± 1.3 J/K/mol
molar heat capacity (196.8 K, Liquid): 355.5 ± 1.8 J/K/mol
molar heat capacity (197.49 K, Crystal): 257.7 ± 1.3 J/K/mol
molar heat capacity (199.36 K, Liquid): 356.4 ± 1.8 J/K/mol
molar heat capacity (200 K, Crystal): 260.7 ± 1.2 J/K/mol
molar heat capacity (200 K, Liquid): 356.9 ± 1.7 J/K/mol
molar heat capacity (200.29 K, Crystal): 260.8 ± 1.3 J/K/mol
molar heat capacity (201.91 K, Liquid): 357.9 ± 1.8 J/K/mol
molar heat capacity (203.07 K, Crystal): 264.4 ± 1.4 J/K/mol
molar heat capacity (204.58 K, Liquid): 359.1 ± 1.8 J/K/mol
molar heat capacity (205.82 K, Crystal): 267.4 ± 1.4 J/K/mol
molar heat capacity (207.37 K, Liquid): 360.1 ± 1.8 J/K/mol
molar heat capacity (208.72 K, Crystal): 270.5 ± 1.4 J/K/mol
molar heat capacity (210 K, Crystal): 272.2 ± 1.3 J/K/mol
molar heat capacity (210 K, Liquid): 361.4 ± 1.7 J/K/mol
molar heat capacity (210.22 K, Liquid): 361.4 ± 1.8 J/K/mol
molar heat capacity (211.76 K, Crystal): 274.3 ± 1.4 J/K/mol
molar heat capacity (213.13 K, Liquid): 363.4 ± 1.8 J/K/mol
molar heat capacity (214.78 K, Crystal): 277.7 ± 1.4 J/K/mol
molar heat capacity (217.77 K, Crystal): 280.9 ± 1.5 J/K/mol
molar heat capacity (220 K, Crystal): 283.4 ± 1.3 J/K/mol
molar heat capacity (220 K, Liquid): 366.1 ± 1.7 J/K/mol
molar heat capacity (220.73 K, Crystal): 284.4 ± 1.5 J/K/mol
molar heat capacity (223.67 K, Crystal): 287.4 ± 1.5 J/K/mol
molar heat capacity (226.59 K, Crystal): 290.7 ± 1.5 J/K/mol
molar heat capacity (229.55 K, Crystal): 293.6 ± 1.5 J/K/mol
molar heat capacity (230 K, Crystal): 294.2 ± 1.4 J/K/mol
molar heat capacity (230 K, Liquid): 370.9 ± 1.7 J/K/mol
molar heat capacity (232.58 K, Crystal): 297.2 ± 1.6 J/K/mol
molar heat capacity (235.59 K, Crystal): 300.4 ± 1.6 J/K/mol
molar heat capacity (238.56 K, Crystal): 303.6 ± 1.6 J/K/mol
molar heat capacity (238.61 K, Liquid): 375.5 ± 1.9 J/K/mol
molar heat capacity (240 K, Crystal): 305.2 ± 1.4 J/K/mol
molar heat capacity (240 K, Liquid): 376 ± 1.7 J/K/mol
molar heat capacity (240.98 K, Liquid): 376.4 ± 1.9 J/K/mol
molar heat capacity (241.58 K, Crystal): 307.1 ± 1.6 J/K/mol
molar heat capacity (243.49 K, Liquid): 377.7 ± 1.9 J/K/mol
molar heat capacity (244.65 K, Crystal): 310.8 ± 1.6 J/K/mol
molar heat capacity (246 K, Liquid): 379.1 ± 1.9 J/K/mol
molar heat capacity (247.69 K, Crystal): 313.5 ± 1.7 J/K/mol
molar heat capacity (248.49 K, Liquid): 379.9 ± 1.9 J/K/mol
molar heat capacity (250 K, Crystal): 316.7 ± 1.5 J/K/mol
molar heat capacity (250 K, Liquid): 381.1 ± 1.7 J/K/mol
molar heat capacity (250.71 K, Crystal): 316.9 ± 1.7 J/K/mol
molar heat capacity (250.97 K, Liquid): 381.9 ± 2 J/K/mol
molar heat capacity (253.43 K, Liquid): 382.8 ± 2 J/K/mol
molar heat capacity (253.7 K, Crystal): 320.9 ± 1.7 J/K/mol
molar heat capacity (256.03 K, Liquid): 384.1 ± 2 J/K/mol
molar heat capacity (256.67 K, Crystal): 323.9 ± 1.7 J/K/mol
molar heat capacity (258.86 K, Liquid): 386 ± 2 J/K/mol
molar heat capacity (259.68 K, Crystal): 327.4 ± 1.7 J/K/mol
molar heat capacity (260 K, Crystal): 328.2 ± 1.5 J/K/mol
molar heat capacity (260 K, Liquid): 386.5 ± 1.7 J/K/mol
molar heat capacity (261.82 K, Liquid): 387.4 ± 2 J/K/mol
molar heat capacity (262.73 K, Crystal): 331.8 ± 1.7 J/K/mol
molar heat capacity (264.77 K, Liquid): 388.5 ± 2 J/K/mol
molar heat capacity (265.76 K, Crystal): 335.3 ± 1.7 J/K/mol
molar heat capacity (267.7 K, Liquid): 390.6 ± 2 J/K/mol
molar heat capacity (268.75 K, Crystal): 342 ± 1.7 J/K/mol
molar heat capacity (270 K, Crystal): 339.6 ± 1.6 J/K/mol
molar heat capacity (270 K, Liquid): 392.1 ± 1.7 J/K/mol
molar heat capacity (270.75 K, Liquid): 392.9 ± 2 J/K/mol
molar heat capacity (273.92 K, Liquid): 394.4 ± 2 J/K/mol
molar heat capacity (277.07 K, Liquid): 396.2 ± 2 J/K/mol
molar heat capacity (279.27 K, Liquid): 397.3 ± 2 J/K/mol
molar heat capacity (280 K, Crystal): 351 ± 1.6 J/K/mol
molar heat capacity (280 K, Liquid): 397.8 ± 1.8 J/K/mol
molar heat capacity (280.22 K, Liquid): 397.8 ± 2 J/K/mol
molar heat capacity (282.28 K, Liquid): 399.3 ± 2.1 J/K/mol
molar heat capacity (283.51 K, Crystal): 355.1 ± 1.6 J/K/mol
molar heat capacity (283.51 K, Liquid): 399.8 ± 1.8 J/K/mol
molar heat capacity (285.27 K, Liquid): 401.1 ± 2.1 J/K/mol
molar heat capacity (288.25 K, Liquid): 402.9 ± 2.1 J/K/mol
molar heat capacity (290 K, Liquid): 403.8 ± 1.8 J/K/mol
molar heat capacity (290.53 K, Liquid): 404.3 ± 2.1 J/K/mol
molar heat capacity (291.29 K, Liquid): 404.5 ± 2.1 J/K/mol
molar heat capacity (293.21 K, Liquid): 406.2 ± 2.1 J/K/mol
molar heat capacity (294.38 K, Liquid): 406.7 ± 2.1 J/K/mol
molar heat capacity (296.25 K, Liquid): 407.3 ± 2.1 J/K/mol
molar heat capacity (297.45 K, Liquid): 409 ± 2.1 J/K/mol
molar heat capacity (298.15 K, Liquid): 408.7 ± 1.8 J/K/mol
molar heat capacity (299.28 K, Liquid): 409.7 ± 2.1 J/K/mol
molar heat capacity (300 K, Liquid): 409.8 ± 1.8 J/K/mol
molar heat capacity (300.51 K, Liquid): 409.8 ± 2.1 J/K/mol
molar heat capacity (302.31 K, Liquid): 411.6 ± 2.1 J/K/mol
molar heat capacity (303.56 K, Liquid): 411.8 ± 2.1 J/K/mol
molar heat capacity (305.32 K, Liquid): 412.9 ± 2.1 J/K/mol
molar heat capacity (306.66 K, Liquid): 414 ± 2.1 J/K/mol
molar heat capacity (308.31 K, Liquid): 414.6 ± 2.1 J/K/mol
molar heat capacity (309.81 K, Liquid): 416 ± 2.2 J/K/mol
molar heat capacity (310 K, Liquid): 415.9 ± 1.8 J/K/mol
molar heat capacity (311.31 K, Liquid): 416.3 ± 2.2 J/K/mol
molar heat capacity (320 K, Liquid): 422.3 ± 5 J/K/mol
molar heat capacity (340 K, Liquid): 434.7 ± 8.7 J/K/mol
molar heat capacity (360 K, Liquid): 446.2 ± 8.9 J/K/mol
molar heat capacity (380 K, Liquid): 457 ± 9.1 J/K/mol
molar heat capacity (400 K, Liquid): 466.9 ± 9.3 J/K/mol
molar heat capacity (420 K, Liquid): 476 ± 9.6 J/K/mol
molar heat capacity (440 K, Liquid): 484.3 ± 9.7 J/K/mol
molar heat capacity (460 K, Liquid): 491.8 ± 9.8 J/K/mol
molar heat capacity (480 K, Liquid): 498.5 ± 10 J/K/mol
molar heat capacity (500 K, Liquid): 504.4 ± 10 J/K/mol
molar heat capacity (520 K, Liquid): 509.5 ± 10 J/K/mol
molar heat capacity (540 K, Liquid): 513.8 ± 10 J/K/mol
molar heat capacity (550 K, Liquid): 515.6 ± 10 J/K/mol
